In patent US20070173438A1, “[PSI[CH2NH]PG4] glycopeptide antibiotic analogs” (The Scripps Research Institute, priority 2006, published 2007):
Converted amounts (≈) assume the structure as drawn. “And” between values parts separate entries of the source, which are not always exact repeats. Equal values may be shown once.

What was measured:
[1] = system: VanA Enterococcus faecalis (BM4166); test: antimicrobial assay against VanA resistant organism; type: cell-based; details: for potency weaker than vancomycin and its aglycon against sensitive E. faecalis: MIC against VanA BM4166 compared with vancomycin/aglycon MIC against sensitive E. faecalis
Text: (§1) It is the most difficult of the resistant organisms to treat (vs VanB) and characteristic of such organisms, they grow unchallenged enlisting a D-Ala-D-Ala peptidoglycan cell wall precursor, but switch to D-Ala-D-Lac upon glycopeptide treatment.

[2] = system: N,N′-Ac2-Lys-D-Ala-D-Ala (2); test: UV difference titration binding constant with model ligand N,N′-Ac2-Lys-D-Ala-D-Ala; details: for Ka, affinity for D-Ala-D-Ala (Ac2-L-Lys-D-Ala-D-Ala, 2): association constant, 0.02 M sodium citrate buffer, Scatchard plot
Protocol: (§2) Binding Constant Determination. The binding constants for compounds 5 and 41 for association with the model ligands N,N′-Ac2-Lys-D-Ala-D-Ala and N,N′-Ac2-Lys-D-Ala-D-Lac were determined according to literature (Nieto, M.; Perkins, H. R. Biochem. J. 1971, 124, 845; Nieto, M.; Perkins, H. R. Biochem. J. 1971, 124, 773; Nieto, M.; Perkins, H. R. Biochem. J. 1971, 124, 789) protocols. UV difference experiments were carried out on a CARY 3E UV-Vis spectrometer. UV scans were run with a baseline correction that consisted of 0.02 M sodium citrate buffer and covered a range from 200 to 345 nm. A solution of 5 or 41 (1.1×10^−4 M in 0.02 M sodium citrate buffer) was placed into a quartz UV cuvette (1.0 cm path length) and the UV spectrum recorded versus a reference cell containing 0.02 M sodium citrate buffer. UV spectra were recorded after each addition of a solution of N,N′-Ac2-Lys-D-Ala-D-Ala or N,N′-Ac2-Lys-D-Ala-D-Lac in 0.02 M sodium citrate buffer to each cell from 0.1 to 140.0 equivalents. The absorbance value at the λmax was recorded and the running change in absorbance, ΔAx equiv (Ainitial−Ax equiv, ) measured. The number of ligand equivalents was plotted versus ΔA to afford the ligand binding titration curve. The break point of this curve is the saturation point of the system and its xy coordinates determined by establishing the intersection of the linear fits of the pre and postsaturation curves. ΔAsaturation was calculated and employed to determine the concentration of free ligand in solution at each titration. ΔA was plotted versus ΔA/free ligand concentration to give a Scatchard plot from which the binding constants were determined.

[3] = system: N,N′-Ac2-Lys-D-Ala-D-Lac (4); test: UV difference titration binding constant with model ligand N,N′-Ac2-Lys-D-Ala-D-Lac; details: for Ka, affinity for D-Ala-D-Lac (Ac2-L-Lys-D-Ala-D-Lac, 4): association constant, 0.02 M sodium citrate buffer, Scatchard plot
Protocol: as §2

[4] = system: enterococci resistant to vancomycin, VanA and VanB; details: literature; cited from earlier work
[5] = system: 3 (methylene analogue of Ac2-L-Lys-D-Ala-D-Ala); details: cited from earlier work
[6] = system: N,N′-Ac2-Lys-D-Ala-D-Lac (4); details: cited from earlier work
sensitive E. faecalis = test: antimicrobial activity against sensitive E. faecalis; type: cell-based; details: Enterococcus faecalis
Text: as §1

For CN[C@H](CC(C)C)C(=O)N[C@H]1C(=O)N[C@@H](CC(N)=O)C(=O)N[C@H]2CN[C@H]3C(=O)N[C@H](C(=O)N[C@H](C(=O)O)c4cc(O)cc(O)c4-c4cc3ccc4O)[C@H](O)c3ccc(c(Cl)c3)Oc3cc2cc(c3O)Oc2ccc(cc2Cl)[C@H]1O [Compound 5, [ψ[CH2NH]Tpg^4]vancomycin aglycon], the “potency weaker than vancomycin and its aglycon against sensitive E. faecalis” value [1] was “roughly 30 fold”, the MIC ([1]; VanA E. faecalis BM4166) was 31 µg/mL (≈ 27.4 µM) and the “potency relative to vancomycin or its aglycon (more potent)” value ([1]; VanA E. faecalis BM4166) was “roughly 40 fold”. The “increase in binding affinity for D-Ala-D-Ala, 5 versus 41” value ([2]; 5 versus carbamate 41) was 3 fold, the “Ka, affinity for D-Ala-D-Ala (Ac2-L-Lys-D-Ala-D-Ala, 2)” value (“Ka, affinity for D-Ala-D-Ala” below) [2] was 4800 M⁻¹ and the “reduction in affinity for D-Ala-D-Ala relative to the vancomycin aglycon” value ([2]; relative to vancomycin aglycon) was 37 fold and 35 fold. The “increase in binding affinity for D-Ala-D-Lac, 5 versus 41” value ([3]; 5 versus carbamate 41) was 1.2 fold, the “Ka, affinity for D-Ala-D-Lac (Ac2-L-Lys-D-Ala-D-Lac, 4)” value (from here on “Ka, affinity for D-Ala-D-Lac”) [3] was 5200 M⁻¹ and the “increase in affinity for D-Ala-D-Lac relative to the vancomycin aglycon” value ([3]; relative to vancomycin aglycon) was 43 fold and 40 fold.

For CN[C@H](CC(C)C)C(=O)N[C@H]1C(=O)N[C@@H](CC#N)C(=O)N[C@H]2CN(C(=O)OC)[C@H]3C(=O)N[C@H](C(=O)N[C@H](COCOCCOC)c4cc(OC)cc(OC)c4-c4cc3ccc4OC)[C@H](O)c3ccc(c(Cl)c3)Oc3cc2cc(c3OC)Oc2ccc(cc2Cl)[C@H]1O [Compound 41], the “potency weaker than vancomycin and its aglycon against sensitive E. faecalis” value [1] was “roughly 30 fold”, the MIC ([1]; VanA E. faecalis BM4166) was 31 µg/mL (≈ 23.8 µM) and the “potency relative to vancomycin or its aglycon (more potent)” value ([1]; VanA E. faecalis BM4166) was “roughly 40 fold”. For the same molecule, the “Ka, affinity for D-Ala-D-Ala” value [2] was 1600 M⁻¹ and the “Ka, affinity for D-Ala-D-Lac” value [3] was 4100 M⁻¹.

For CN[C@H](CC(C)C)C(=O)N[C@H]1C(=O)N[C@@H](CC(N)=O)C(=O)N[C@H]2C(=O)N[C@H]3C(=O)N[C@H](C(=O)N[C@H](C(=O)O)c4cc(O)cc(O)c4-c4cc3ccc4O)[C@H](O)c3ccc(c(Cl)c3)Oc3cc2cc(c3O)Oc2ccc(cc2Cl)[C@H]1O [vancomycin aglycon, reference compound], the MIC ([1]; VanA E. faecalis BM4166) was 640 µg/mL (≈ 559 µM), the “Ka, affinity for D-Ala-D-Ala” value [2] was 170000 M⁻¹ and the “Ka, affinity for D-Ala-D-Lac” value [3] was 120 M⁻¹.

In the case of CN[C@H](CC(C)C)C(=O)N[C@H]1C(=O)N[C@@H](CC(N)=O)C(=O)N[C@H]2C(=O)N[C@H]3C(=O)N[C@H](C(=O)N[C@H](C(=O)O)c4cc(O)cc(O)c4-c4cc3ccc4O)[C@H](O)c3ccc(c(Cl)c3)Oc3cc2cc(c3O[C@@H]2O[C@H](CO)[C@@H](O)[C@H](O)[C@H]2O[C@H]2C[C@](C)(N)[C@H](O)[C@H](C)O2)Oc2ccc(cc2Cl)[C@H]1O [vancomycin], the “drop in antimicrobial activity with D-Ala-D-Lac resistant bacteria” value [4] is given as 1000 fold, the “affinity for 3 less than that of 2” value ([5]; relative to Ac2-L-Lys-D-Ala-D-Ala (2)) is given as “approximately 10 fold” and the “affinity for 3 greater than that of 4” value ([5]; relative to Ac2-L-Lys-D-Ala-D-Lac (4)) is given as 100 fold. For the same molecule, the MIC ([1]; Enterococcus faecalis) was 2000 µg/mL (≈ 1380 µM), the “reduction of binding to D-Ala-D-Lac ligand versus D-Ala-D-Ala” value ([6]; literature) was 1000 fold and the “destabilizing lone pair/lone pair interaction with ester oxygen of 4” value ([6]; share of lost binding energy) was 2.6 kcal/mol. For the same molecule, the “reduced binding affinity of 4” value ([6]; versus 2, total loss) was 4.1 kcal/mol and the MIC (sensitive E. faecalis) was 1 to 2.5 µg/mL (≈ 0.69 to 1.73 µM).
